PubChem BioAssay (NCI)
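All cell lines were grown in 96-well plates and treated with compound for 48 hours. GI50 = concentration required for 50% inhibition of growth. Definition used: TGI = concentration required for complete inhibition of growth.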

Columns and labels:
Test in all cases: NCI tumour cell line growth inhibition, 48 h
SN12C renal = tested on: SN12C renal
COLO 205 colon = tested on: COLO 205 colon
RPMI-8226 leukemia = tested on: RPMI-8226 leukemia
SK-MEL-28 melanoma = tested on: SK-MEL-28 melanoma
BT-549 breast = tested on: BT-549 breast
SK-MEL-2 melanoma = tested on: SK-MEL-2 melanoma
PC-3 prostate = tested on: PC-3 prostate
SF-539 CNS = tested on: SF-539 CNS
HT29 colon = tested on: HT29 colon
SK-MEL-5 melanoma = tested on: SK-MEL-5 melanoma
NCI-H460 lung = tested on: NCI-H460 lung
OVCAR-5 ovarian = tested on: OVCAR-5 ovarian
M14 melanoma = tested on: M14 melanoma
RXF 393 renal = tested on: RXF 393 renal
SF-295 CNS = tested on: SF-295 CNS
OVCAR-3 ovarian = tested on: OVCAR-3 ovarian
MCF7 breast = tested on: MCF7 breast
HL-60(TB) leukemia = tested on: HL-60(TB) leukemia
OVCAR-4 ovarian = tested on: OVCAR-4 ovarian
CCRF-CEM leukemia = tested on: CCRF-CEM leukemia
MOLT-4 leukemia = tested on: MOLT-4 leukemia
UO-31 renal = tested on: UO-31 renal
ACHN renal = tested on: ACHN renal
SW-620 colon = tested on: SW-620 colon
SNB-19 CNS = tested on: SNB-19 CNS
HCT-15 colon = tested on: HCT-15 colon
HOP-62 NSCLC = tested on: HOP-62 NSCLC
NCI-H226 lung = tested on: NCI-H226 lung
LOX IMVI melanoma = tested on: LOX IMVI melanoma
786-0 renal = tested on: 786-0 renal
KM12 colon = tested on: KM12 colon
T-47D breast = tested on: T-47D breast
MDA-MB-231 breast = tested on: MDA-MB-231 breast
CAKI-1 renal = tested on: CAKI-1 renal
UACC-62 melanoma = tested on: UACC-62 melanoma
MDA-MB-435 = tested on: MDA-MB-435
OVCAR-8 ovarian = tested on: OVCAR-8 ovarian
EKVX NSCLC = tested on: EKVX NSCLC
NCI-H522 lung = tested on: NCI-H522 lung
NCI-H23 lung = tested on: NCI-H23 lung
TK-10 renal = tested on: TK-10 renal
HOP-92 NSCLC = tested on: HOP-92 NSCLC
DU-145 prostate = tested on: DU-145 prostate
UACC-257 melanoma = tested on: UACC-257 melanoma
A498 renal = tested on: A498 renal
K-562 leukemia = tested on: K-562 leukemia
HCT-116 colon = tested on: HCT-116 colon
A549 NSCLC = tested on: A549 NSCLC
U251 CNS = tested on: U251 CNS
MDA-MB-468 breast = tested on: MDA-MB-468 breast
SF-268 CNS = tested on: SF-268 CNS
SR leukemia = tested on: SR leukemia
MALME-3M melanoma = tested on: MALME-3M melanoma
HCC-2998 colon = tested on: HCC-2998 colon
IGROV1 ovarian = tested on: IGROV1 ovarian
SNB-75 CNS = tested on: SNB-75 CNS
SK-OV-3 ovarian = tested on: SK-OV-3 ovarian
HS 578T breast = tested on: HS 578T breast
NCI/ADR-RES ovarian = tested on: NCI/ADR-RES ovarian

**Q.** What does the source list for `O=C(Nc1ccc(-c2ccc3c(c2)NC(=O)/C3=C\c2ccc[nH]2)cc1)Nc1cccc(Cl)c1`?
**A.** GI50 (SN12C renal): 4.44 µM; TGI (SN12C renal): 24.3 µM; GI50 (COLO 205 colon): 1.92 µM; TGI (COLO 205 colon): 3.79 µM; GI50 (RPMI-8226 leukemia): 2.62 µM; TGI (RPMI-8226 leukemia): 15.3 µM; GI50 (SK-MEL-28 melanoma): 3.09 µM; TGI (SK-MEL-28 melanoma): 10.2 µM; GI50 (BT-549 breast): 2.33 µM; TGI (BT-549 breast): 6.65 µM; GI50 (SK-MEL-2 melanoma): 2.2 µM; TGI (SK-MEL-2 melanoma): 6.05 µM; GI50 (PC-3 prostate): 2.19 µM; TGI (PC-3 prostate): 11.2 µM; GI50 (SF-539 CNS): 1.43 µM; TGI (SF-539 CNS): 3.06 µM; GI50 (HT29 colon): 1.86 µM; TGI (HT29 colon): 4.54 µM; GI50 (SK-MEL-5 melanoma): 1.88 µM; TGI (SK-MEL-5 melanoma): 4.5 µM; GI50 (NCI-H460 lung): 0.766 µM; TGI (NCI-H460 lung): 4 µM; GI50 (OVCAR-5 ovarian): 1.78 µM; TGI (OVCAR-5 ovarian): 3.76 µM; GI50 (M14 melanoma): 3.23 µM; TGI (M14 melanoma): 26.1 µM; GI50 (RXF 393 renal): 2.07 µM; TGI (RXF 393 renal): 4.52 µM; GI50 (SF-295 CNS): 1.9 µM; TGI (SF-295 CNS): 5.02 µM; GI50 (OVCAR-3 ovarian): 1.69 µM; TGI (OVCAR-3 ovarian): 3.85 µM; GI50 (MCF7 breast): 0.329 µM; TGI (MCF7 breast): 7.58 µM; GI50 (HL-60(TB) leukemia): 1.64 µM; TGI (HL-60(TB) leukemia): 14.5 µM; GI50 (OVCAR-4 ovarian): 1.76 µM; TGI (OVCAR-4 ovarian): 9.71 µM; GI50 (CCRF-CEM leukemia): 0.846 µM; TGI (CCRF-CEM leukemia): 4.41 µM; GI50 (MOLT-4 leukemia): 0.895 µM; TGI (MOLT-4 leukemia): 11.1 µM; GI50 (UO-31 renal): 1.77 µM; TGI (UO-31 renal): 12.7 µM; GI50 (ACHN renal): 1.81 µM; TGI (ACHN renal): 6.57 µM; GI50 (SW-620 colon): 2.29 µM; TGI (SW-620 colon): 11.7 µM; GI50 (SNB-19 CNS): 4.7 µM; TGI (SNB-19 CNS): 35.8 µM; GI50 (HCT-15 colon): 1.9 µM; TGI (HCT-15 colon): 10.8 µM; GI50 (HOP-62 NSCLC): 1.99 µM; TGI (HOP-62 NSCLC): 6.15 µM; GI50 (NCI-H226 lung): 2.51 µM; TGI (NCI-H226 lung): 9.27 µM; GI50 (LOX IMVI melanoma): 1.53 µM; TGI (LOX IMVI melanoma): 3.39 µM; GI50 (786-0 renal): 2.42 µM; TGI (786-0 renal): 7.45 µM; GI50 (KM12 colon): 0.0672 µM; TGI (KM12 colon): 2 µM; GI50 (T-47D breast): 0.424 µM; TGI (T-47D breast): 5.36 µM; GI50 (MDA-MB-231 breast): 1.64 µM; TGI (MDA-MB-231 breast): 3.86 µM; GI50 (CAKI-1 renal): 1.33 µM; TGI (CAKI-1 renal): 6.39 µM; GI50 (UACC-62 melanoma): 2.1 µM; TGI (UACC-62 melanoma): 6.03 µM; GI50 (MDA-MB-435): 1 µM; TGI (MDA-MB-435): 14.1 µM; GI50 (OVCAR-8 ovarian): 2.44 µM; TGI (OVCAR-8 ovarian): 6.53 µM; GI50 (EKVX NSCLC): 0.775 µM; TGI (EKVX NSCLC): 10.7 µM; GI50 (NCI-H522 lung): 1.6 µM; TGI (NCI-H522 lung): 5.1 µM; GI50 (NCI-H23 lung): 1.08 µM; TGI (NCI-H23 lung): 3.79 µM; GI50 (TK-10 renal): 2.88 µM; TGI (TK-10 renal): 9.85 µM; GI50 (HOP-92 NSCLC): 4.81 µM; TGI (HOP-92 NSCLC): 24.4 µM; GI50 (DU-145 prostate): 4.76 µM; TGI (DU-145 prostate): 92.8 µM; GI50 (UACC-257 melanoma): 3.42 µM; TGI (UACC-257 melanoma): 24.5 µM; GI50 (A498 renal): 3.46 µM; TGI (A498 renal): 11.1 µM; GI50 (K-562 leukemia): 1.09 µM; TGI (K-562 leukemia): > 100 µM; GI50 (HCT-116 colon): 1.68 µM; TGI (HCT-116 colon): 11.7 µM; GI50 (A549 NSCLC): 2.09 µM; TGI (A549 NSCLC): 7.09 µM; GI50 (U251 CNS): 2.98 µM; TGI (U251 CNS): 11.6 µM; GI50 (MDA-MB-468 breast): 0.286 µM; TGI (MDA-MB-468 breast): 0.838 µM; GI50 (SF-268 CNS): 4.6 µM; TGI (SF-268 CNS): 60.9 µM; GI50 (SR leukemia): 1.27 µM; TGI (SR leukemia): 32.5 µM; GI50 (MALME-3M melanoma): 2.32 µM; TGI (MALME-3M melanoma): 7.2 µM; GI50 (HCC-2998 colon): 1.78 µM; TGI (HCC-2998 colon): 5.61 µM; GI50 (IGROV1 ovarian): 1.7 µM; TGI (IGROV1 ovarian): 3.78 µM; GI50 (SNB-75 CNS): 2.97 µM; TGI (SNB-75 CNS): 7.93 µM; GI50 (SK-OV-3 ovarian): 3.43 µM; TGI (SK-OV-3 ovarian): 14.4 µM; GI50 (HS 578T breast): 2.73 µM; TGI (HS 578T breast): 8.74 µM; GI50 (NCI/ADR-RES ovarian): 2.14 µM; TGI (NCI/ADR-RES ovarian): 6.01 µM
